This is an account of results in patent US20090326032A1, “PHARMACEUTICAL COMPOSITIONS COMPRISING NK1 RECEPTOR ANTAGONISTS AND SODIUM CHANNEL BLOCKERS” (GLAXO GROUP LIMITED, priority 2007, published 2009).

Series [1] in a line: blood and brain drug concentrations in satellite animals. The class given is in vivo, rat. To be noted: for concentration at 60 min: CD, rat, intraperitoneal.
In series [2] the test system is tonic hindlimb extensor seizures. Kind of series: threshold for tonic hindlimb extensor seizures, corneal electroshock, 'up and down' method (CC50). To be noted: ENa7 3 mg/kg s.c. alone, male CD rats. It is filed as in vivo, rat. The method, then: This work was conducted in compliance with the Home Office Guidance on the operation of the Animals (Scientific Procedures) Act 1986 and GlaxoSmithKline ethical standards. Male CD rats (100-145 g) were supplied by Charles River, UK. Animals were group housed (6 animal per cage) with free access to food (Standard rodent chow; Harlan, UK) and water under a 12 h light/dark cycle (lights on at 0700 h). A period of at least one week between arrival at GSK and the study was allowed in all cases.
Animals were administered a test compound at the appropriate dose, route and pre-treatment time and returned to their home cage. Testing occurred in a separate room from that used for housing. […] Seizure threshold was determined using the ‘up and down’ method of Kimball et al. (1957)(Kimball A W, Burnett W T Jr, Doherty D G. (1957) Radiat Res. 7(1):1-12). […]
All doses were calculated as base. […]
Induction of seizure is measured as an all-or-nothing effect scored as either present (+) or absent (0) for each animal. […] Drug effects were calculated as the % change in CC50. Significant differences between drug-treated animals and appropriate vehicle treated groups were assessed according to the methods of Litchfield and Wilcoxon (1949). […]

Structures can show the parent of a compound that is named as a salt. Where two headings read alike, the source gives them in different places.

For the compound `COc1ccc(-n2nnnc2C(F)(F)F)cc1CN[C@H]1CCCN[C@H]1c1ccccc1` [ENK6, [2-Methoxy-5-(5-trifluoromethyl-tetrazol-1-yl)-benzyl]-([2S,3S]-2-phenyl-piperidin-3-yl)-amine dihydrochloride], the concentration at 60 min in series [1] (blood, 30 mg/kg, ENK6 30 mg/kg, ENa7 veh, n = 1, read-out: Blood ENK6) is 558 ng/mL; in series [1] (blood, ENK6 30 mg/kg + ENa7 1 mg/kg, n = 2, read-out: Blood ENK6) it was 456 ng/mL; in series [1] (blood, ENK6 30 mg/kg + ENa7 3 mg/kg, n = 2, read-out: Blood ENK6) it was 1210 ng/mL; in series [1] (brain, 30 mg/kg, ENK6 30 mg/kg, ENa7 veh, n = 1, read-out: Brain ENK6), 1260 ng/g; in series [1] (brain, ENK6 30 mg/kg + ENa7 1 mg/kg, n = 2, read-out: Brain ENK6) it was 1040 ng/g; in series [1] (brain, ENK6 30 mg/kg + ENa7 3 mg/kg, n = 2, read-out: Brain ENK6) it was 4800 ng/g.

Turning to `CN1CC[C@]2(CC[C@H](c3ccc(OCc4ccccc4F)cc3)N2)C1=O.Cl` [ENa7, (2R,5R)-2-(4-{[(2-Fluorophenyl)methyl]oxy}phenyl)-7-methyl-1,7-diazaspiro[4.4]nonan-6-one hydrochloride], the seizure threshold result in series [2] is “robust and significant increase”. The “concentration of ENa7 in the presence of the NK1 antagonist” value in series [1] (blood and brain, with vs without ENK6 30 mg/kg) is given as “No increase”.
